Test results: paper PMC12952245 (Cancer, 2025)

Key:
[1] = Irinotecan and metabolites plasma pharmacokinetics (LC-MS/MS, noncompartmental)
Method: (§1) Berzosertib plasma protein binding was assessed in vitro using rapid equilibrium dialysis (RED) devices (Thermo Fisher Scientific, Waltham, Massachusetts).
(§2) Plasma pharmacokinetic parameters were derived from the data by noncompartmental methods with WinNonlin (Certara). Statistical analyses for pharmacokinetic parameter values were performed using SPSS 27.0 for Windows (SPSS Inc, Chicago, Illinois).

[2] = tested on: patients with advanced solid tumors; test: Phase 1 safety of berzosertib plus irinotecan: treatment-related adverse events (CTCAE v5.0), DLT, MTD/RP2D; type: in vivo
Method: Berzosertib was supplied under a Collaborative Research and Development Agreement among NCI, Vertex Pharmaceuticals, and EMD Serono. Irinotecan was obtained from commercial sources.
Treatment cycles were 28 days long (Supporting Information S1: Figure S1).
A history and physical examination were conducted at baseline and before each cycle. Complete blood counts and serum chemistries were performed at baseline and weekly during C1 and every 2 weeks thereafter. Toxicities were graded using NCI Common Terminology Criteria for Adverse Events (version 5.0) and defined as adverse events that were possibly, probably, or definitely related to treatment. Radiographic evaluation was performed at baseline and every 8 weeks for tumor response based on Response Evaluation Criteria in Solid Tumors (RECIST) version 1.1.
DLs were evaluated using a modified Storer’s up and down design with the plan of enrolling up to 36 evaluable patients during dose escalation (Supporting Information S1: Figure S1).[8] Stage I of the Modified Storer’s up and down design is single patient dose escalation until a DLT is observed. Once a DLT is observed, patients are treated in cohorts of five in stage II of the design. The MTD was defined as the highest DL tested at which ≤20% patients experience dose limiting toxicity (DLT) during C1 of therapy.

clinical = conditions: human, in vivo
Method: as §1, §2

[3] = Berzosertib plasma protein binding in vitro, rapid equilibrium dialysis; type: in vitro ADME; conditions: human plasma, 300 – 100,000 µg/L tested
p-Chk1 = conditions: reported value, no reference given; cited from earlier work
[4] = set-up: method as in PMID 32568634; conditions: highest dose level 240 mg/m^2 once or twice weekly; cited from earlier work
[5] = tested on: ATM and H2AX phosphorylation in PBMCs; test: PBMC DNA damage signaling, quasi-quantitative dual multiplexed immunoblot; type: in vivo, human
Method: Blood was processed and analysis performed as described.[11]–[13]

[6] = tested on: γH2AX, pS343-NBS1, and pS824-KAP1; test: Tumor DNA damage signaling, multiplex immunofluorescence of paired biopsies; type: in vivo, human; conditions: 18–22 hours after end of irinotecan infusion (C1D-13), one colon cancer patient; 4% is the assay baseline
Source text: Paired tumor biopsies were collected from patients enrolled in the expansion cohort. […] The staining of FFPE tissue sections used the BOND RX autostainer (Leica Biosystems). For γH2AX and […]-NBS1 analysis, biotin-conjugated γH2AX (clone JBW301; EMD Millipore) and a custom-conjugated […]-NBS1-DIG (clone EP178; Abcam) antibodies were detected with the use of streptavidin labeled with Alexa Fluor 488 and Alexa Fluor 647 custom-conjugated IgG Fraction Monoclonal Mouse Anti-Digoxin antibody, respectively. For […]-KAP1 analysis, anti-[…]-KAP1 antibody (clone EPR5248; Abcam) custom conjugated to dinitrophenol (Molecular Probes, Inc) was detected using Alexa Fluor 488 conjugated anti-dinitrophenyl KLH rabbit polyclonal antibody. In addition, β-catenin antibody custom conjugated to Alexa Fluor 546 was used to define tumor areas in all biomarker analyses. For γH2AX and […]-NBS1 analysis, fluorescent whole slide images were acquired at 20× using Leica's Aperio FL scanner. Images were then analyzed using a custom algorithm build in Definiens Tissue Studio Analysis software (formerly Definiens AG). For […]-KAP1 analysis, whole slide fluorescent images were acquired at 20× using ZEISS Axioscan 7 scanner. Images were analyzed using a custom algorithm in HALO software (Indica Labs).

[7] = D15, irinotecan 180/150 mg/m^2 with berzosertib (N=41), geometric mean (SD)
[8] = D-14, irinotecan 180 mg/m^2 alone (N=55), geometric mean (SD)
[9] = N=39, with/without berzosertib, geometric mean (SD)
[10] = irinotecan 180 mg/m^2 (N=55), D-14 (alone), geometric mean (SD)

## CCc1c2c(nc3ccc(OC(=O)N4CCC(NCCCCC(=O)O)CC4)cc13)-c1cc3c(c(=O)n1C2)COC(=O)[C@]3(O)CC [APC]
[1]; [7]
  APC/ IRI AUC Ratio: 0.221 (1.96)
[1]; [8]
  APC/ IRI AUC Ratio: 0.196 (1.80)
[1]; [9]
  APC/ IRI AUC Ratio, D15/D-14: 1.09 (1.50)
[1]; human, in vivo, 180 mg/m2
  APC AUC0-inf: 2.74 (1.92) mg/L•h
  APC Cmax: 201 (1.81) µg/L
[1]; irinotecan 180 mg/m^2 (N=55), day -14 of cycle 1, geometric mean (SD)
  APC t½: 12.1 (1.3) h

## CCc1c2c(nc3ccc(O)cc13)-c1cc3c(c(=O)n1C2)COC(=O)[C@]3(O)CC [SN38]
[1]; [7]
  SN38/ IRI AUC Ratio: 0.0282 (1.70)
[1]; [8]
  SN38/ IRI AUC Ratio: 0.0268 (1.56)
[1]; [9]
  SN38/ IRI AUC Ratio, D15/D-14: 1.07 (1.48)
[1]; bioequivalence approach
  90% CI of the AUC ratio (presence/absence of berzosertib): fell within the traditional boundaries of 80%–125%
[1]; bioequivalence assessment, lower 90% confidence interval
  SN38 AUC ratio D15/D-14, L-90%CI: 93.6%
[1]; bioequivalence assessment, presence/absence of berzosertib
  SN38 AUC ratio D15/D-14, Average BE: 106.6%
[1]; bioequivalence assessment, upper 90% confidence interval
  SN38 AUC ratio D15/D-14, U-90%CI: 121.5%
[1]; [10]
  SN38 AUC0-inf: 0.38 (1.8) mg/L•h
  SN38 Cmax: 25.0 (1.78) µg/L
  SN38 t½: 19.9 (1.3) h
[1]; presence/absence of berzosertib, dose-normalized AUC, geometric mean (SD)
  SN38 AUC Ratio D15/D-14: 1.07 (1.7)

## CNCc1ccc(-c2cc(-c3nc(-c4ccc(S(=O)(=O)C(C)C)cc4)cnc3N)on2)cc1 [berzosertib]
[2]; human, in vivo
  berzosertib exposure (AUC) versus cycle 1 toxicity grade: higher in patients with C1 higher any grade toxicity and higher hematologic grade toxicity
[2]; with irinotecan 180 mg/m^2, iv every 2 weeks (DL4)
  MTD and RP2D, berzosertib dose: 270 mg/m^2
clinical
  Cl: 24.3 (1.30) L/h/m^2
  Cmax/Dose: 4.90 (1.45) µg/L / mg/m^2
  Tmax: 0.61 h
  Vss: 530 (1.30) L/m^2
  Vz: 612 (1.31) L/m^2
clinical; 60 mg/m2
  AUC(0-inf): 2330 ng·h/mL
  Cl: 25.7 (-) L/h/m^2
  Cmax: 343 ng/mL
  Cmax/Dose: 5.72 (-) µg/L / mg/m^2
  Tmax: 0.45 h
  Vss: 459 (-) L/m^2
  half-life: 14.4 h
clinical; 120 mg/m2
  AUC(0-inf): 4190 ng·h/mL
  Cl: 28.7 (1.40) L/h/m^2
  Cmax: 535 ng/mL
  Tmax: 0.54 h
  half-life: 14.1 h
clinical; 180 mg/m2
  AUC(0-inf): 8550 ng·h/mL
  Cl: 21.1 (1.20) L/h/m^2
  Cmax: 1060 ng/mL
  Cmax/Dose: 5.92 (1.44) µg/L / mg/m^2
  Tmax: 0.66 h
  Vss: 422 (1.37) L/m^2
  half-life: 16.1 h
clinical; 270 mg/m2
  AUC(0-inf): 11000 ng·h/mL
  Cl: 24.6 (1.30) L/h/m^2
  Cmax: 1260 ng/mL
  Cmax/Dose: 4.67 (1.46) µg/L / mg/m^2
  Tmax: 0.61 h
  Vss: 578 (1.24) L/m^2
  half-life: 18.8 h
clinical; iv
  half-life: ~17 h
  total clearance: 24 L/h/m^2
  volume of distribution: approximately 530 L/m^2
[3]
  concentration from which the free fraction increased (plasma protein binding): approximately 30 μg/mL
p-Chk1
  human equivalent p-Chk1 IC50: approximately 110 ng/mL
[4]
  dose-limiting toxicities, monotherapy: no dose-limiting toxicities

## CCc1c2c(nc3ccc(OC(=O)N4CCC(N5CCCCC5)CC4)cc13)-c1cc3c(c(=O)n1C2)COC(=O)[C@]3(O)CC [irinotecan]
[2]; with berzosertib 270 mg/m^2, iv every 2 weeks (DL4)
  MTD and RP2D, irinotecan dose: 180 mg/m^2
[1]; human, in vivo, 180 mg/m2
  AUC(0-inf): 14000 ng·h/mL
  Cmax: 2180 ng/mL
[5]; 4 hours 30 minutes, returned to baseline by 24 hours
  induction of H2AX phosphorylation in PBMCs: 10 fold
[5]; irinotecan alone (C1D-14)
  induction of ATM in PBMCs: no induction of ATM
[6]
  γH2AX and pNBS1 in tumor biopsy: > 4 % nuclear area positive (NAP)
